Source: US8916572B2, “Bis-quinazoline derivatives as inhibitors for epidermal growth factor receptor (EGFR) tyrosine kinase” (Tetranov International, Inc., priority 2012, dated 2014)

Tested on: human lung adenocarcinoma epithelial cell line A549
Test: Growth inhibition in vitro of human tumor cell line A549 (MTT assay)
Assay type: cell-based
Conditions: for IC50: Homo sapiens, A549 cells, MTT assay, 24 hours incubation, read-out: IC 50, tumor cell growth inhibition in human tumor cell line A549
Method: Growth Inhibition In Vitro of Human Tumor Cell Line A549 by Examples:
Human lung adenocarcinoma epithelial cell line A549 was obtained from American Type Culture Collection (ATCC) and maintained in Dulbecco modified eagle medium supplemented with 10% fetal bovine serum. MTT assay was performed using the MTT cell proliferation assay kit (ATCC). Briefly, 3×10^3 A549 cells/well were plated in 96 well plates overnight and then incubated with different concentrations of tested compounds or vehicle controls for 24 hours. Ten μl of MTT reagent was added to each well for 120 min. The formazan crystal was dissolved with MTT detergent, and the OD value was measured at 570 nm using a SpectraMax M3 microplate reader (Molecular Devices). Data were normalized to vehicle controls and processed using GraphPad Prism 5.00.

Structure (SMILES)	IC50 [µM]	in vitro activity compared to Erlotinib in cell line A549 (human lung adenocarcinoma epithelial cell line A549, comparison in words)
C#Cc1cccc(Nc2ncnc3cc(OCCOCCOCCOCCOc4cc5c(Nc6cccc(C#C)c6)ncnc5cc4OCCOC)c(OCCOC)cc23)c1 [dimer 3, N-(3-ethynylphenyl)-6-(2-(2-(2-(2-((4-((3-ethynylphenyl)amino)-6-(2-methoxyethoxy)quinazolin-7-yl)oxy)ethoxy)ethoxy)ethoxy)ethoxy)-7-(2-methoxyethoxy)quinazolin-4-amine]	> 80	–
C#Cc1cccc(Nc2ncnc3cc(OCCOC)c(OCCOCCOCCOCCOc4cc5c(Nc6cccc(C#C)c6)ncnc5cc4OCCOC)cc23)c1 [dimer 2, 6,6′-((((oxybis(ethane-2,1-diyl))bis(oxy))bis(ethane-2,1-diyl))bis(oxy))bis(N-(3-ethynylphenyl)-7-(2-methoxyethoxy)quinazolin-4-amine)]	5.1	higher activity than Erlotinib
C#Cc1cccc(Nc2ncnc3cc(OCCOCCOCCOCCOc4cc5ncnc(Nc6cccc(C#C)c6)c5cc4OCCOC)c(OCCOC)cc23)c1 [dimer 1, 7,7′-((((oxybis(ethane-2,1-diyl))bis(oxy))bis(ethane-2,1-diyl))bis(oxy))bis(N-(3-ethynylphenyl)-6-(2-methoxyethoxy)quinazolin-4-amine)]	> 80	–
C#Cc1cccc(Nc2ncnc3cc(OCCOC)c(OCCOC)cc23)c1 [Erlotinib, reference compound]	9.9	–
